Assay [1] addresses T1, EML4-ALK fusion protein v1 (Homo sapiens, UniProt Q9UM73, D1529E/I1461V/K1491R).
T1 construct: FLAG (N); made in house
Description: Inhibitory effect of compounds against the in vitro kinase activity of EML4-ALK fusion protein v1, IC50 (Test Example 14). Format: biochemical. To be noted: 8 concentrations 1000 nM to 0.3 nM. Here is the method: In the same manner as shown in Test Example 12(3), compounds were investigated for their inhibitory effect against the in vitro kinase activity of EML4-ALK fusion protein v1 using the kinase activity detection kit mentioned above. Test compounds were each added to a reaction solution containing the EML4-ALK fusion protein v1 to give 8 final concentrations from 1000 nM to 0.3 nM, followed by addition of ATP. Another reaction solution was prepared to contain the EML4-ALK fusion protein v1 but no test compound (in which the solvent DMSO alone was added at 0.4% in place of the test compound), followed by reaction with or without ATP addition. The rest of the operations were carried out as described in Test Example 12(2). […] The concentration causing 50% inhibition (IC50) was calculated for each test compound by the logistic regression method.

The test system of assay [2] is human non-small cell lung cancer cell line NCI-H2228 cells (EML4-ALK fusion protein-expressing cells). Description: Inhibitory effect against anchorage-independent cell growth of NCI-H2228 cells (Test Example 3). Format: cell-based. The following applies: 120 h, spheroid plate, 5 days, CellTiter-Glo. An excerpt: Measurement for anchorage-independent cell growth (colony method, etc) has been known to be a system for investigating the anticancer action (pharmacological effect) of test compounds (Clinical Oncology, second edition, Cancer and Chemotherapy Publishers Inc.). In place of the colony method, there is a following method using spheroid plates for measuring the growth of non-attached cells.
(§1) In a 96-well spheroid plate (Sumilon Celltight Spheroid 96U; Sumitomo Bakelite Co., Ltd., Japan), human non-small cell lung cancer cell line NCI-H2228 cells were seeded at 2000 cells per well in RPMI1640 medium (Invitrogen) containing 10% fetal bovine serum. NCI-H2228 cells are those expressing another EML4-ALK fusion protein, which is different from the EML4-ALK fusion protein v1 because it is encoded by an EML4-ALK fusion polynucleotide whose fusion point on EML4 cDNA is different from that of the EML4-ALK fusion polynucleotide v1, but whose ALK region is the same as that of the EML4-ALK fusion polynucleotide v1. The above NCI-H2228 cells seeded in the plate were cultured overnight under 5% CO2 at 37° C., followed by addition of a test compound (final concentration: 10 μM to 1 nM). As a negative control, DMSO used as a solvent was added at the same concentration as the test compound. Then, the cells were cultured under 5% CO2 at 37° C. for 5 days. A cell counting reagent (CellTiter-Glo™ Luminescent Cell Viability Assay; Promega) was added and agitated for 20 minutes, followed by measurement with a luminometer (ML3000 microtiter plate luminometer; Dynatech Laboratories).

Assay [3] deals with T1, EML4-ALK fusion protein v1. Nature of the assay: Inhibitory activity against the kinase activity of EML4-ALK fusion protein v1 (Test Example 1). Format: biochemical. To be noted: ATP 100 μM, reaction 1 hour, HTRF KinEASE-TK. As for the experimental part: EML4-ALK fusion protein v1 (purified from BA/F3 cells expressing EML4-ALK fusion protein v1) was investigated for its phosphorylation activity toward a peptide substrate by using a kinase activity detection kit (HTRF KinEASE-TK; Cisbio Inc.). […] The ATP concentration used was 100 μM. Another reaction solution was prepared to contain the enzyme protein but no test compound (in which the solvent DMSO alone was added at 0.4% in place of the test compound), followed by reaction in the same manner with or without ATP addition. […] The concentration causing 50% inhibition (IC50) was calculated for each test compound by the logistic regression method.
N-terminally FLAG-tagged EML4-ALK fusion protein v1 was inserted into a vector pMX-iresCD8 capable of co-expression of insert cDNA and cell surface antigen CD8 (J. Biol. Chem., 2001, vol. 276, p. 39012-39020) to create a vector FLAG-EML4-ALKv1/pMX-iresCD8 expressing both FLAG-EML4-ALKv1 and CD8. FLAG-EML4-ALKv1/pMX-iresCD8 was used to create a recombinant retrovirus in the same manner as described above and infected into mouse lymphoid cell line BA/F3 cells. Using a magnetic bead reagent for cell separation and a purification column (anti-CD8 monoclonal antibody immobilized on magnetic beads and a MiniMACS purification column; both are products of Miltenyi Biotec Inc.), cell surface CD8-expressing cells were purified conveniently. […] After washing 3 times with PBS, the cells were lysed in a lysis solution (50 mM Tris.HCl (pH 7.4), 150 mM NaCl, 1% Triton X100, 5 mM EDTA, 5 mM EGTA, 1 mM NaVO4, 1 mM DTT and protease inhibitor cocktail complete). The EML4-ALK fusion protein v1 present in the supernatant obtained after centrifugation was purified using ANTI-FLAG M2 Affinity Gel (SIGMA-ALDRICH Inc.) according to the method described in the product information document.
The EML4-ALK fusion protein v1 purified as above was investigated for its phosphorylation activity toward a peptide substrate using a kinase activity detection kit (HTRF KinEASE-TK; Cisbio Inc.). Using TK substrate 1, which was included in the kit, as the substrate, and after adding no ATP or 100 μM ATP, the mixtures were reacted at room temperature for 1 hour, and the count of HTRF was detected as recommended by the Kits manufacturer.

The subject of assay [4] is human non-small cell lung cancer cell line HCC827 cells (mutant EGFR protein-expressing cells). Description: Inhibitory effect against anchorage-independent cell growth of HCC827 cells (Test Example 4). Format: cell-based. The following applies: 120 h, spheroid plate, 5 days, CellTiter-Glo. As for the experimental part:
as §1
Evaluation of Inhibitory Effect Against Anchorage-Independent Cell Growth of Human Non-Small Cell Lung Cancer Cell Line HCC827 Cells (Mutant EGFR (with Partial Deletion of Exon 19 in EGFR) Protein-Expressing Cells, American Type Culture Collection)
Evaluation was performed in the same manner as shown in Test Example 3.

T1 sequence (Q9UM73 with tags, fused parts or gaps I1461V/K1491R/D1529E): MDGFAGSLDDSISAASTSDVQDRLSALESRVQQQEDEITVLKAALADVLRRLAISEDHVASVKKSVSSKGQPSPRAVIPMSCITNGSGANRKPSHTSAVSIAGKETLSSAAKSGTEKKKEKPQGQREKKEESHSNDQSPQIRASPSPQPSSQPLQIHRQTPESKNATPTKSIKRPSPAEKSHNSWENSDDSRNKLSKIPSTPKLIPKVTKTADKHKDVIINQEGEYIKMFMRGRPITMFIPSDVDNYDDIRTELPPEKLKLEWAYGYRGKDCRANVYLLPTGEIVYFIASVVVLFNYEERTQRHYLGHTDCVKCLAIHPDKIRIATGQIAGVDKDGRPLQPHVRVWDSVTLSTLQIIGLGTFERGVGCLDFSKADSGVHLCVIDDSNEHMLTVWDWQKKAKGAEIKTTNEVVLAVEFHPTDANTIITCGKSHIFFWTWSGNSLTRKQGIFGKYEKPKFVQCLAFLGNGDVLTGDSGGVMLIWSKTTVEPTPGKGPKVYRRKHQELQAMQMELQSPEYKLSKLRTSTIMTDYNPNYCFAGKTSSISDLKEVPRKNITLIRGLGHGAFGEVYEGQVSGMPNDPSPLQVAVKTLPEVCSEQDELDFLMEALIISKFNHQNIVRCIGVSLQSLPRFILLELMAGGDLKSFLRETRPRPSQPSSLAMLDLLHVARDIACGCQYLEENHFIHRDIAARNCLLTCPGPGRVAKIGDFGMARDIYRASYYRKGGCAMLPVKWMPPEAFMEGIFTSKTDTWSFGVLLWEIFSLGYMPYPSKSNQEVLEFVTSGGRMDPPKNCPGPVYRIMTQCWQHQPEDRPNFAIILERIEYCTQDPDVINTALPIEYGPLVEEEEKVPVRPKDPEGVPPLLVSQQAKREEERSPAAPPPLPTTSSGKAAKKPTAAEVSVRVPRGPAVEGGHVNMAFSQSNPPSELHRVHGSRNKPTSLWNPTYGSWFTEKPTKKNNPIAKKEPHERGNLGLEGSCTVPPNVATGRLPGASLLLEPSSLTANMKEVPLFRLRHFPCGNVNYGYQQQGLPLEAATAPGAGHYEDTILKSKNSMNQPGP

In the case of `COc1cc(N2CCC(N3CCN(C)CC3)CC2)ccc1Nc1nc(Nc2ccccc2S(=O)(=O)C(C)C)c2ccccc2n1` [Example 1, N^4-[2-(isopropylsulfonyl)phenyl]-N^2-{2-methoxy-4-[4-(4-methylpiperazin-1-yl)piperidin-1-yl]phenyl}quinazoline-2,4-diamine], the IC50 is 42 nM in assay [1], 473 nM in assay [2], 42 nM in assay [3] and 2510 nM in assay [4].

Source of the values: patent publication US20130096100A1, “DI(ARYLAMINO)ARYL COMPOUND” (ASTELLAS PHARMA INC., priority 2007, published 2013).
